From patent US5278143A, “Prophylactic and therapeutic methods for treating interleukin-mediated edemas” (Trustees of Boston University, priority 1991, dated 1994)
Residues, ends and D or L forms follow the SMILES beside them.

Experiments:
[1] = system: phalloidin poisoning; details: cited from earlier work
[2] = system: IL-2 induced edema; assay: IL-2 induced vascular leak syndrome, organ wet to dry (W/D) weight ratios; format: in vivo, rats; details: for Spleen wet to dry ratio (splenic edema) / Kidney wet to dry ratio (renal edema) / Liver wet to dry ratio (hepatic edema) / Heart wet to dry weight ratio (cardiac edema) / Lung wet to dry weight ratio (pulmonary edema): agent alone, 1 uM; for Spleen wet to dry ratio (splenic edema): FIG. 1; for Kidney wet to dry ratio (renal edema): FIG. 2; for Liver wet to dry ratio (hepatic edema): FIG. 3; for Heart wet to dry weight ratio (cardiac edema): FIG. 4; for Lung wet to dry weight ratio (pulmonary edema): FIG. 5
[3] = system: IL-2 induced edema; assay: as above; format: in vivo, rats; details: for Lung wet to dry weight ratio, effect of agent on IL-2 edema: agent 1 uM co-treatment with 10^6 U/ml IL-2, p<0.05, FIG. 5; for Heart wet to dry weight ratio, effect of agent on IL-2 edema: agent 1 uM co-treatment with 10^6 U/mml IL-2, p<0.01, FIG. 4; for Kidney wet to dry ratio, effect of agent on IL-2 edema: agent 1 uM plus 10^6 U/ml IL-2, FIG. 2; for Liver wet to dry ratio, effect of agent with IL-2: agent 1 uM plus IL-2 co-treatment, FIG. 3; for Spleen wet to dry ratio, effect of agent with IL-2: agent plus 10^6 U/ml IL-2, FIG. 1
Procedure: (§1) 1. Assay Models: Vascular leak syndrome is induced rapidly in adult, male rats (500 g) by a continuous infusion for 1 h of 10^6 units of IL-2 (n=36). Five hours later the animals are killed and edema is quantitated by measuring wet to dry (W/D) ratios for the lungs, kidneys, liver, heart, and spleen.
(§2) 2. Controls: Animals are pretreated with 0.5 ml saline for 30 min. prior to the IL-2 infusion (n=28).
(§3) 3. Experimental Animals: Each animal is pretreated with either Phallin A (antamanide) or Phallin B (phalloidin), 20 ug/0.5 ml saline as a single bolus 30 min. prior to the infusion of IL-2 (n=24). Each animal then receives at 30 min. intervals a booster injection of 20 ug of Phallin A or Phallin B for the duration (6 h) of the experiments.

[4] = system: IL-2 induced edema; assay: IL-2 induced vascular leak syndrome, protein concentration of bronchoalveolar lavage fluid; format: in vivo, rats; details: agent 1 uM and 10^6 U/ml Interleukin-2, compared with 10^6 U/ml Interleukin-2 alone, FIG. 6
Procedure: as §1, §2, §3
4. Protein Analysis: Samples obtained by bronchoalveolar lavage are quantitated for protein concentration as another means of determining the relative loss of barrier integrity in the experimental animals compared to controls.

[5] = system: mice or rats; details: high dose levels, intramuscularly; cited from earlier work
[6] = system: albino mice; details: intramuscularly; cited from earlier work

| Molecule | Spleen wet to dry ratio (splenic edema) [2] | Kidney wet to dry ratio (renal edema) [2] | Liver wet to dry ratio (hepatic edema) [2] | Heart wet to dry weight ratio (cardiac edema) [2] | Lung wet to dry weight ratio (pulmonary edema) [2] | Lung wet to dry weight ratio, effect of agent on IL-2 edema [3] | Heart wet to dry weight ratio, effect of agent on IL-2 edema [3] | Kidney wet to dry ratio, effect of agent on IL-2 edema [3] | Liver wet to dry ratio, effect of agent with IL-2 [3] | Spleen wet to dry ratio, effect of agent with IL-2 [3] | Protein concentration in bronchoalveolar lavage fluid [4] | further results |
| --- | --- | --- | --- | --- | --- | --- | --- | --- | --- | --- | --- | --- |
| CC(C)[C@@H]1NC(=O)[C@H](Cc2ccccc2)NC(=O)[C@H](Cc2ccccc2)NC(=O)[C@@H]2CCCN2C(=O)[C@@H]2CCCN2C(=O)[C@H](Cc2ccccc2)NC(=O)[C@H](Cc2ccccc2)NC(=O)[C@H](C)NC(=O)[C@@H]2CCCN2C(=O)[C@@H]2CCCN2C1=O [antamanide] (cyclo(AFFPPFFVPP)) | did not produce any significant splenic edema | did not produce any significant renal edema | did not produce any significant hepatic edema | did not produce any significant cardiac edema | did not produce any significant pulmonary edema | significantly reduced | significantly reduced | signnificantly improved (p<0.05) | No significant change in wet/dry weight ratio | remained unmodified | drastically reduced the accumulation and concentration of protein | toxicity of the substance itself ([1]; in vivo): completely non-toxic of itself; effect on toxic effects of fatal doses of phalloidin ([1]; therapeutic doses): capable of actually annulling the toxic effects of fatal doses of phalloidin; Spleen wet to dry ratio, effect of agent with IL-2 ([2]; agent plus 10^6 U/ml IL-2, FIG. 1, listed as Phallin A): appear unaffected; Lung wet to dry weight ratio, effect of agent on IL-2 edema ([3]; listed as Phallin A): prevented IL-2 induced edema; Heart wet to dry weight ratio, effect of agent on IL-2 edema ([3]; listed as Phallin A): prevented IL-2 induced edema; Kidney wet to dry ratio, effect of agent on IL-2 edema ([3]; listed as Phallin A): prevented IL-2 induced edema; Liver wet to dry ratio, effect of agent with IL-2 ([3]; listed as Phallin A): appear unaffected |
| Phalloidin | did not produce any significant splenic edema | did not produce any significant renal edema | did not produce any significant hepatic edema | did not produce any significant cardiac edema | did not produce any significant pulmonary edema | significantly reduced | significantly reduced | significantly (p<0.05) worsened | produced significant (p<0.05) edema | remained unmodified | drastically reduced the accumulation and concentration of protein | time to death [5]: death of mice or rats within one or two hours; LD50 dose [6]: 3.3 micrograms per gram of body weight; Lung wet to dry weight ratio, effect of agent on IL-2 edema ([3]; listed as Phallin B): decreases IL-2 induced edema; Heart wet to dry weight ratio, effect of agent on IL-2 edema ([3]; listed as Phallin B): decreases IL-2 induced edema; Kidney wet to dry ratio, effect of agent on IL-2 edema ([3]; listed as Phallin B): apparently produces edema; Liver wet to dry ratio, effect of agent with IL-2 ([3]; listed as Phallin B): apparently produces edema |
